Reference: publication PMC8079988, “Inhibition of TMEM16A by Natural Product Silibinin: Potential Lead Compounds for Treatment of Lung Adenocarcinoma” (Frontiers in Pharmacology, 2021)

Target: T1, TMEM16A (Mus musculus, UniProt Q8BHY3)
T1 construct: gene Ano1
T1 sequence (Q8BHY3 1-960): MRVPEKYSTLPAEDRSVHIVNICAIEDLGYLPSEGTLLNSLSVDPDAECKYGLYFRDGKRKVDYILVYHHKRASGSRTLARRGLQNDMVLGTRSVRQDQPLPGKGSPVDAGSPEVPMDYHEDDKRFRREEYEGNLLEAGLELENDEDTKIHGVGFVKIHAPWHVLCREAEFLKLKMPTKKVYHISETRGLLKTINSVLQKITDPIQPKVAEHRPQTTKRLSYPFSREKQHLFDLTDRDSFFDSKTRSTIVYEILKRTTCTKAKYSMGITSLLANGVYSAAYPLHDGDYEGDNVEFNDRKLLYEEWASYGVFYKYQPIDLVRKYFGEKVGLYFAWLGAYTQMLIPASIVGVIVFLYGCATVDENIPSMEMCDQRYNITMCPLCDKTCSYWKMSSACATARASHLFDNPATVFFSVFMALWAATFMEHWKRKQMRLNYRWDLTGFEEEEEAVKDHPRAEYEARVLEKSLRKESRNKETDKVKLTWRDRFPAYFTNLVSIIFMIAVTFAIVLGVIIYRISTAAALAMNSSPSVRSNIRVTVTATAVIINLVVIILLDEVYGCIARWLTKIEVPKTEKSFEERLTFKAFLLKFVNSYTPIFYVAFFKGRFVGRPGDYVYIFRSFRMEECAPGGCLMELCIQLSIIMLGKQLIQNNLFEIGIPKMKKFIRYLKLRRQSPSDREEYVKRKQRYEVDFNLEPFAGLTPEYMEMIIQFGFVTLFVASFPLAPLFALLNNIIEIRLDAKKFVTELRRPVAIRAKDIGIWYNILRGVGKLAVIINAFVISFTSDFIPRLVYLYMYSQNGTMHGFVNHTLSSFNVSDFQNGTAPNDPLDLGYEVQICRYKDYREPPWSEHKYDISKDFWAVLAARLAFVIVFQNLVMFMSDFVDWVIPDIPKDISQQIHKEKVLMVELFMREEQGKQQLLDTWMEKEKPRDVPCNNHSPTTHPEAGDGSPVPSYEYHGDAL
Assay: whole-cell patch clamp in LA795 cells; YFP quenching; site-directed mutagenesis
Type: cell-based

COc1cc(C2Oc3cc([C@H]4Oc5cc(O)cc(O)c5C(=O)[C@@H]4O)ccc3OC2CO)ccc1O (stereo partly shown) [silibinin]
IC50: 30.9 ± 2.1 µM
